Reference: patent publication US8765748B2, “Indazolyl, benzimidazolyl, benzotriazolyl substituted indolinone derivatives as kinase inhibitors useful in the treatment of cancer” (University Health Network, priority 2007, dated 2014)

Legend:
Type in all cases: biochemical
Aurora A = molecular target: T1, Aurora A (Homo sapiens, UniProt O14965); assay: Aurora A Inhibition Assay (Z-Lyte); conditions: 20 μM ATP, 12 nM Aurora A; read-out: Aurora A IC50 Ranges
T1 construct: purchased Invitrogen PV3612
T1 sequence (O14965 1-403): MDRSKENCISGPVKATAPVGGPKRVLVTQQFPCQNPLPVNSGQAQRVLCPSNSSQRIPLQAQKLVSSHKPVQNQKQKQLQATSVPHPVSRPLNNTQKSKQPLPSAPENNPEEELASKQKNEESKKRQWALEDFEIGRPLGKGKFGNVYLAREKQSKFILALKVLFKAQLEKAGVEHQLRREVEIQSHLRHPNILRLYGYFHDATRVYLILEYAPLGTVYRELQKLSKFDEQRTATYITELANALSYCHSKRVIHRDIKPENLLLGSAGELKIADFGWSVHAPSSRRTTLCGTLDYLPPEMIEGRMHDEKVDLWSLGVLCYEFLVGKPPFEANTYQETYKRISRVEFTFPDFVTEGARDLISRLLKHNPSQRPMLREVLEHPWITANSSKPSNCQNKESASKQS
Experimental: (§1) Aurora A inhibition was determined using the Z-Lyte assay kit from Invitrogen. The assay was performed using the recommended manufacturer's instructions with 20 μM ATP and 12 nM Aurora A (Invitrogen cat #PV3612). The % inhibition values were determined according to the manufacturer's directions and IC50 values were obtained using a non-linear 4 point logistic curve fit (XLfit4, IDBS)

Aurora B = molecular target: T2, Aurora B (Homo sapiens, UniProt Q96GD4); assay: Aurora B Inhibition Assay (Z-Lyte); conditions: 128 μM ATP, 28 nM Aurora B; read-out: Aurora B IC50 Ranges
T2 construct: purchased Invitrogen PV3970
T2 sequence (Q96GD4 whole entry): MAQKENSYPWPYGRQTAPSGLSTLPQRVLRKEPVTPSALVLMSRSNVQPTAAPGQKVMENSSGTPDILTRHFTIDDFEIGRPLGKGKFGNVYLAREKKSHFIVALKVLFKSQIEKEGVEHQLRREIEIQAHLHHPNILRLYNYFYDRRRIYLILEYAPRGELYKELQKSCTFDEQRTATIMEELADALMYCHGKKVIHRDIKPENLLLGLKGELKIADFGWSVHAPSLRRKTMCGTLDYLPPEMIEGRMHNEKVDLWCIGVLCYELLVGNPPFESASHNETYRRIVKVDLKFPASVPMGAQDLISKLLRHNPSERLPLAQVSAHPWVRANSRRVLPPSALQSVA
Experimental: as §1, with “Aurora B” for “Aurora A”, “with 128” for “with 20”, “and 28” for “and 12”, “cat #PV3970).” for “cat #PV3612).”

human PLK4 = molecular target: T3, human PLK4 (Homo sapiens, UniProt O00444); assay: PLK4 Inhibition Assay (indirect ELISA); conditions: 15 μM ATP, 4 nM GST-PLK4; read-out: PLK4 IC50 Ranges
T3 construct: amino terminal GST fusion of residues 1-391 of human PLK4; made in house; host or cells: E. coli
T3 sequence (O00444 1-391): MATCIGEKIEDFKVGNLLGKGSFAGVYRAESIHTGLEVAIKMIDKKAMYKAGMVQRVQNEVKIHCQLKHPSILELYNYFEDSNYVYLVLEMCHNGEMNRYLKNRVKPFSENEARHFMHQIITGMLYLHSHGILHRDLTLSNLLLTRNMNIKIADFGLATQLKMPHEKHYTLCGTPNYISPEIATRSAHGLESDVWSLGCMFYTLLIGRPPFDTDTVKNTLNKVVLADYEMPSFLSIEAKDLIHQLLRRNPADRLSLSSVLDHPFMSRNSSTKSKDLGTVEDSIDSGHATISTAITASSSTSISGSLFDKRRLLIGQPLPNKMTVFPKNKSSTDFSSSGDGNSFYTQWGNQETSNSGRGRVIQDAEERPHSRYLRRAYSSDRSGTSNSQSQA
Experimental: The protein was purified from clarified cell extracts after induction at 15° C. overnight using glutathione sepharose, gel permeation chromatography, and ion exchange (Resource Q). The resulting protein was dephosphorylated with lambda phosphatase (NEB cat #P0753), and resolved from the phosphatase using gluthione sepharose. The dephosphorylated GST-PLK4 was stored in aliquots at −80° C. until use. PLK4 activity was measured using an indirect ELISA detection system. […] Compounds were pre-incubated in the presence of enzyme for 15 minutes prior to addition of ATP and the activity remaining quantified using the above described activity assay. […] The IC50 value was determined using a non-linear 4 point logistic curve fit (XLfit4, IDBS) with the formula; (A+(B/(1+((x/C)^D)))), where A=background value, B=range, C=inflection point, D=curve fit parameter.

PLK1 = molecular target: T4, PLK1 (Homo sapiens, UniProt P53350); assay: PLK1 Inhibition Assay (Z-Lyte); conditions: 25 μM ATP, 8 nM PLK1; read-out: PLK1 IC50 Ranges
T4 construct: purchased Invitrogen PV3501
T4 sequence (P53350 whole entry): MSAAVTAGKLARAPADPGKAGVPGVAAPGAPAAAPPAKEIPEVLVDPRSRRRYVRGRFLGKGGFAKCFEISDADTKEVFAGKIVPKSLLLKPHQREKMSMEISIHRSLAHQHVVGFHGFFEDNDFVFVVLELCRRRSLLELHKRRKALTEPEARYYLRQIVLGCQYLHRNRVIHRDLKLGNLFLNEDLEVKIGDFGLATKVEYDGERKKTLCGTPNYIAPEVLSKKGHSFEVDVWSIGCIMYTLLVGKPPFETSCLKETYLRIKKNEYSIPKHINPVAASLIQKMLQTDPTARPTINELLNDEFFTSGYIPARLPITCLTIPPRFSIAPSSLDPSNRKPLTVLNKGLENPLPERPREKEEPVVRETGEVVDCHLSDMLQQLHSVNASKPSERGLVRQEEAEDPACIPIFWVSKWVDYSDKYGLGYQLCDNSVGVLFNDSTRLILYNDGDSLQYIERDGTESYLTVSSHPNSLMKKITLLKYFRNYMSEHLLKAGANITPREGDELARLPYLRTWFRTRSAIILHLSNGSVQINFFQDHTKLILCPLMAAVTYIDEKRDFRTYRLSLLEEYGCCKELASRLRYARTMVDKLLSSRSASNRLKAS
Experimental: PLK1 inhibition was determined using the Z-Lyte assay kit from Invitrogen (cat #PV3802). […] The % inhibition values were determined according to the manufacturer's directions and IC50 values were obtained using a non-linear 4 point logistic curve fit (XLfit4, IDBS)

IC50 (Aurora A) [µM]	IC50 (Aurora B) [µM]	IC50 (human PLK4) [µM]	IC50 (PLK1) [µM]	Structure (SMILES)
< 5	< 5	< 5		O=C1Nc2ccc(O)cc2/C1=C\c1ccc2cn[nH]c2c1 [Example A123, (E)-3-((1H-indazol-6-yl)methylene)-5-hydroxyindolin-2-one]
		5 to 50	5 to 50	CN1C(=O)/C(=C/c2ccc3cn[nH]c3c2)c2ccccc21 [Example A34, (E)-3-((1H-indazol-6-yl)methylene)-1-methylindolin-2-one]
		< 5	5 to 50	CC(=O)Nc1ccc2c(c1)NC(=O)/C2=C/c1ccc2[nH]ncc2c1 [Example A18]
		5 to 50	> 50	O=C1Nc2cc(-c3cccnc3)ccc2/C1=C\c1ccc2[nH]ncc2c1 [Example A30, (E)-3-((1H-indazol-5-yl)methylene)-6-(pyridin-3-yl)indolin-2-one]
		5 to 50	> 50	CN1C(=O)/C(=C/c2ccc3nn[nH]c3c2)c2ccccc21 [Example A33, (E)-3-((1H-benzo[d][1.2.3]triazol-5-yl)methylene)-1-methylindolin-2-one]
		< 5	5 to 50	Nc1ccc2c(c1)/C(=C\c1ccc3cn[nH]c3c1)C(=O)N2 [Example A15, (E)-3-((1H-indazol-6-yl)methylene)-2-oxoindolin-5-aminium 2,2,2-trifluoroacetate]
		< 5	< 5	CS(=O)(=O)Nc1ccc2c(c1)/C(=C\c1ccc3cn[nH]c3c1)C(=O)N2 [Example A25, (E)-N-(3-((1H-indazol-6-yl)methylene)-2-oxoindolin-5-yl)methanesulfonamide]
	< 5	< 5		CN(C)CCN(C)S(=O)(=O)c1ccc2c(c1)C(=Cc1ccc3c(/C=C/c4ccncc4)n[nH]c3c1)C(=O)N2 (mixture of isomers) [Example A129, (E and Z)—N-(2-(dimethylamino)ethyl)-N-methyl-2-oxo-3-((3-((E)-2-(pyridin-4-yl)vinyl)-1H-indazol-6-yl)methylene)indoline-5-sulfonamide]
	< 5	< 5		CN(C)CCCNc1ccc2c(c1)C(=Cc1ccc3c(/C=C/c4ccncc4)n[nH]c3c1)C(=O)N2 (mixture of isomers) [Example A130, (E and Z)-5-(3-(dimethylamino)propylamino)-3-((3-((E)-2-(pyridin-4-yl)-vinyl)-1H-indazol-6-yl)methylene)indolin-2-one]
	< 5	< 5		Nc1ccc2c(c1)/C(=C\c1ccc3c(/C=C/c4ccncc4)n[nH]c3c1)C(=O)N2 [Example A122, (E)-5-amino-3-((3-((E)-2-(pyridin-4-yl)vinyl)-1H-indazol-6-yl)-methylene)indolin-2-one bis(2,2,2-trifluoroacetate)]
< 5	< 5			COc1ccc2c(c1)C(=Cc1ccc3c(/C=C/c4ccc(CN(C)C)cc4)n[nH]c3c1)C(=O)N2 (stereo in doubt) [Example A136b, (Z)-3-((3-(4-((dimethylamino)methyl)styryl)-1H-indazol-6-yl)-methylene)-5-methoxyindolin-2-one 2,2,2-trifluoroacetate]
		< 5	> 50	O=C1Nc2ccc(OC(F)(F)F)cc2/C1=C\c1ccc2nn[nH]c2c1 [Example A14, (E)-3-((1H-benzo[d][1,2,3]triazol-5-yl)methylene)-5-(trifluoromethoxy)indolin-2-one]
	5 to 50	< 5		C/C(=C1\C(=O)Nc2ccccc21)c1ccc2cn[nH]c2c1 [Example A51, (E)-3-(1-(1H-indazol-6-yl)ethylidene)indolin-2-one]
		5 to 50	5 to 50	CNC(=O)c1ccc2c(c1)/C(=C\c1ccc3cn[nH]c3c1)C(=O)N2 [Example A8, (E)-3-((1H-indazol-6-yl)methylene)-N-methyl-2-oxoindoline-5-carboxamide]
	< 5	< 5		COc1ccc2c(c1)/C(=C\c1ccc3c(/C=C/c4cccc[n+]4[O-])n[nH]c3c1)C(=O)N2 [Example A88, 2-((E)-2-(6-((E)-(5-methoxy-2-oxoindolin-3-ylidene)methyl)-1H-indazol-3-yl)vinyl)pyridine 1-oxide]
		< 5	5 to 50	CN(C)S(=O)(=O)Nc1ccc2c(c1)/C(=C\c1ccc3nn[nH]c3c1)C(=O)N2 [Example A21, N′-[(3E)-3-(1H-benzotriazol-5-ylmethylidene)-2-oxo-2,3-dihydro-1H-indol-5-yl]-N,N-dimethylsulfamide]
	< 5			COc1ccc2c(c1)/C(=C\c1ccc3c(/C=C/c4ccc(CN(C)C)cc4)n[nH]c3c1)C(=O)N2 [Example A136a, (E)-3-((3-(4-((dimethylamino)methyl)styryl)-1H-indazol-6-yl)-methylene)-5-methoxyindolin-2-one 2,2,2-trifluoroacetate]
		< 5	< 5	CN(C)S(=O)(=O)Nc1ccc2c(c1)/C(=C\c1ccc3cn[nH]c3c1)C(=O)N2 [Example A20, N′-[(3E)-3-(1H-indazol-6-ylmethylidene)-2-oxo-2,3-dihydro-1H-indol-5-yl]-N,N-dimethylsulfamide]
		< 5	> 50	O=C1Nc2cc(-c3cccnc3)ccc2/C1=C\c1ccc2[nH]nnc2c1 [Example A29, (E)-3-((1H-benzo[d][1,2,3]triazol-5-yl)methylene)-6-(pyridin-3-yl)indolin-2-one]
	< 5	< 5		O=C1Nc2ccccc2C1=Cc1cc(/C=C/c2ccncc2)c2cn[nH]c2c1 (mixture of isomers) [Example A55, (E and Z)-3-((4-((E)-2-(pyridin-4-yl)vinyl)-1H-indazol-6-yl)methylene)indolin-2-one]
	< 5	< 5		CC(C)(C)OC(=O)Nc1ccc2c(c1)/C(=C\c1ccc3c(/C=C/c4ccncc4)n[nH]c3c1)C(=O)N2 [Example A121, tert-butyl(E)-2-oxo-3-((3-((E)-2-(pyridin-4-yl)vinyl)-1H-indazol-6-yl)methylene)indolin-5-ylcarbamate]
		5 to 50	5 to 50	CC(=O)Nc1ccc2c(c1)NC(=O)/C2=C/c1ccc2nn[nH]c2c1 [Example A17, (E)-N-(3-((1H-benzo[d][1,2,3]triazol-5-yl)methylene)-2-oxoindolin-6-yl)acetamide]
		< 5	5 to 50	CC(C)(C)OC(=O)Nc1ccc2c(c1)/C(=C\c1ccc3cn[nH]c3c1)C(=O)N2 [Example A12, (E)-tert-butyl 3-((1H-indazol-6-yl)methylene)-2-oxoindolin-5-ylcarbamate]
		< 5	5 to 50	CC(=O)Nc1ccc2c(c1)/C(=C\c1ccc3nn[nH]c3c1)C(=O)N2 [Example A23, (E)-N-(3-((1H-benzo[d][1,2,3]triazol-5-yl)methylene)-2-oxoindolin-5-yl)acetamide]
		5 to 50	5 to 50	CC(C)NC(=O)Nc1ccc2c(c1)/C(=C\c1ccc3nn[nH]c3c1)C(=O)N2 [Example A27, (E)-1-(3-((1H-benzo[d][1,2,3]triazol-5-yl)methylene)-2-oxoindolin-5-yl)-3-isopropylurea]
		< 5	5 to 50	CS(=O)(=O)Nc1ccc2c(c1)/C(=C\c1ccc3nn[nH]c3c1)C(=O)N2 [Example A24, (E)-N-(3-((1H-benzo[d][1,2,3]triazol-5-yl)methylene)-2-oxoindolin-5-yl)methanesulfonamide]
